A word on the IC50: it is the midpoint of a concentration-inhibition curve. The term viability, T/C denotes the ratio of treated to control.

For the assay, the system named is KRAS PDC tumor spheroids (HUVEC+MSC), viability. Briefly: Anticancer human tumor 254851-301-R-J1-PDC patient-derived colon carcinoma cell line growth inhibition [KRAS2]. To be noted: for viability, T/C: stronger effect = lower value. The procedure, abridged:
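Combination screen of spheroid viability in tumor-cell co-cultures with endothelial (HUVEC) and mesenchymal stem cell stroma. Each agent was tested in half-log dilutions, topping at clinical Cmax or at 10 microM without a known Cmax.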

The mark [1] stands for this setting: curve of first compound, second compound 0.1 µM.
[2] abbreviates: curve of first compound, second compound 0.316 µM.
The mark [3] stands for this setting: curve of first compound, second compound 1 µM.
Setting [4] is: curve of first compound, second compound 3.16 µM.
Setting [5] is: curve of first compound, second compound 10 µM.
The mark [6] stands for this setting: second compound 0.1 µM, first compound 0.0316 µM.
[7] abbreviates: second compound 0.1 µM, first compound 0.1 µM.
Where [8] appears, read: second compound 0.1 µM, first compound 0.316 µM.
Where [9] appears, read: second compound 0.1 µM, first compound 1 µM.
[10] abbreviates: second compound 0.1 µM, first compound 3.16 µM.
Where [11] appears, read: second compound 0.1 µM, first compound 10 µM.
The mark [12] stands for this setting: second compound 0.316 µM, first compound 0.0316 µM.
The mark [13] stands for this setting: second compound 0.316 µM, first compound 0.1 µM.
Where [14] appears, read: second compound 0.316 µM, first compound 0.316 µM.
[15] abbreviates: second compound 0.316 µM, first compound 1 µM.
Setting [16] is: second compound 0.316 µM, first compound 3.16 µM.
The mark [17] stands for this setting: second compound 0.316 µM, first compound 10 µM.
The mark [18] stands for this setting: second compound 1 µM, first compound 0.0316 µM.
[19] abbreviates: second compound 1 µM, first compound 0.1 µM.
Where [20] appears, read: second compound 1 µM, first compound 0.316 µM.
Setting [21] is: second compound 1 µM, first compound 1 µM.
Setting [22] is: second compound 1 µM, first compound 3.16 µM.
[23] abbreviates: second compound 1 µM, first compound 10 µM.
Setting [24] is: second compound 3.16 µM, first compound 0.0316 µM.
[25] abbreviates: second compound 3.16 µM, first compound 0.1 µM.
The mark [26] stands for this setting: second compound 3.16 µM, first compound 0.316 µM.
Where [27] appears, read: second compound 3.16 µM, first compound 1 µM.
The mark [28] stands for this setting: second compound 3.16 µM, first compound 3.16 µM.
Where [29] appears, read: second compound 3.16 µM, first compound 10 µM.
[30] abbreviates: second compound 10 µM, first compound 0.0316 µM.
The mark [31] stands for this setting: second compound 10 µM, first compound 0.1 µM.
Setting [32] is: second compound 10 µM, first compound 0.316 µM.
The mark [33] stands for this setting: second compound 10 µM, first compound 1 µM.
[34] abbreviates: second compound 10 µM, first compound 3.16 µM.
The mark [35] stands for this setting: second compound 10 µM, first compound 10 µM.
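Note: spheroids exposed to compounds for seven days before readout.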
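Throughout, for viability, T/C: 100% = DMSO vehicle control luminescence of the spheroids.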

Consider `CC1(C)CCC(CN2CCN(c3ccc(C(=O)NS(=O)(=O)c4ccc(NCC5CCOCC5)c([N+](=O)[O-])c4)c(Oc4cnc5[nH]ccc5c4)c3)CC2)=C(c2ccc(Cl)cc2)C1` + C=CC(=O)N1CCN(c2nc(=O)n(-c3c(C)ccnc3C(C)C)c3nc(-c4c(O)cccc4F)c(F)cc23)C(C)C1, for which the half-maximal inhibitory concentration (IC50) runs as follows: under setting [1], more than 10000 nM; under setting [2], more than 10000 nM; under setting [3], more than 10000 nM; under setting [4], more than 10000 nM; under setting [5], more than 10000 nM. Besides, the viability, T/C is 106% under setting [6]; 112% under setting [7]; 98.2% under setting [8]; 95.4% under setting [9]; 95.3% under setting [10]; 73.6% under setting [11]. Moreover, the viability, T/C is 106% under setting [12]; 115% under setting [13]; 91.2% under setting [14]; 95.1% under setting [15]; 91.3% under setting [16]; 91.6% under setting [17]. Also, the viability, T/C under setting [18] was 114%; the viability, T/C under setting [19] is 115%; the viability, T/C under setting [20] was 105%; the viability, T/C under setting [21] was 104%; the viability, T/C under setting [22] is 93.8%; the viability, T/C under setting [23] was 74.3%. The viability, T/C under setting [24] was 102%; the viability, T/C under setting [25] was 119%; the viability, T/C under setting [26] is 102%; the viability, T/C under setting [27] was 103%; the viability, T/C under setting [28] is 92.7%; the viability, T/C under setting [29] was 84.9%. The viability, T/C reads like this: under setting [30], 109%; under setting [31], 109%; under setting [32], 97.8%; under setting [33], 107%; under setting [34], 93.8%; under setting [35], 83.7%.
On to `CC(=O)OC12COC1CC(O)C1(C)C(=O)C(O)C3=C(C)C(OC(=O)C(O)C(NC(=O)OC(C)(C)C)c4ccccc4)CC(O)(C(OC(=O)c4ccccc4)C21)C3(C)C` (centres undefined) + COc1cc2nc(C)nc(NC(C)c3cc(N)cc(C(F)(F)F)c3)c2cc1OC1CCOC1, for which the IC50 runs as follows: under setting [1], 180 nM; under setting [2], 143 nM; under setting [3], 166 nM; under setting [4], 66.2 nM; under setting [5], 69.7 nM. Moreover, the viability, T/C was 95% (second compound 0.1 µM, first compound 0.01 µM); 87% under setting [6]; 62.2% under setting [7]; 38.4% under setting [8]; 27% under setting [9]; 24.5% under setting [10]. Moreover, the viability, T/C was 96.1% (second compound 0.316 µM, first compound 0.01 µM); 92.7% under setting [12]; 56.4% under setting [13]; 34.6% under setting [14]; 24.7% under setting [15]; 23.3% under setting [16]. The viability, T/C runs as follows: (second compound 1 µM, first compound 0.01 µM) 82.2%; under setting [18], 78.7%; under setting [19], 62.1%; under setting [20], 34.6%; under setting [21], 26.4%; under setting [22], 24.5%. For the same molecule, the viability, T/C is 71.8% (second compound 3.16 µM, first compound 0.01 µM); 67% under setting [24]; 40.3% under setting [25]; 28.1% under setting [26]; 24.9% under setting [27]; 24.2% under setting [28]. Further, the viability, T/C runs as follows: (second compound 10 µM, first compound 0.01 µM) 72.4%; under setting [30], 68.9%; under setting [31], 41.4%; under setting [32], 25%; under setting [33], 25.1%; under setting [34], 24.4%.
With `CCN1CCN(Cc2ccc(Nc3ncc(F)c(-c4cc(F)c5nc(C)n(C(C)C)c5c4)n3)nc2)CC1`, the viability, T/C is 98.6% [middle of 5 runs] (compound 0.00316 µM); 101% [middle of 5 runs] (compound 0.01 µM); 90.3% [middle of 5 runs] (compound 0.0316 µM); 83.7% [middle of 5 runs] (compound 0.1 µM); 69.6% [middle of 5 runs] (compound 0.316 µM); 42% [middle of 5 runs] (compound 1 µM).
As for `CN(C)C/C=C/C(=O)Nc1cc2c(Nc3ccc(F)c(Cl)c3)ncnc2cc1O[C@H]1CCOC1`, the viability, T/C runs as follows: (compound 0.000316 µM) 104% [middle of 5 runs]; (compound 0.001 µM) 108% [middle of 5 runs]; (compound 0.00316 µM) 104% [middle of 5 runs]; (compound 0.01 µM) 96.8% [middle of 5 runs]; (compound 0.0316 µM) 97.6% [middle of 5 runs]; (compound 0.1 µM) 81.5% [middle of 5 runs]. For the same molecule, the half-maximal inhibitory concentration (IC50) (curve of compound) was more than 100 nM.
Turning to `CNCc1ccccc1-c1csc(C(C)Nc2nc(C)nc3cc(OC)c(OC)cc23)c1` (centres undefined), the viability, T/C by setting is: (compound 0.1 µM) 95.8% [middle of 17 runs]; (compound 0.316 µM) 99.9% [middle of 16 runs]; (compound 10 µM) 0.17% [middle of 15 runs]. Moreover, the half-inhibitory concentration (IC50) reads like this: (compound alone, run of 07/12/2021) 4.73 µM [middle of 6 runs]; (compound alone, run of 07/19/2021) 4.58 µM [middle of 5 runs]; (compound alone, run of 07/26/2021) 2.42 µM [middle of 6 runs].
Take `O=C(c1cc(Cc2n[nH]c(=O)c3ccccc23)ccc1F)N1CCN(C(=O)C2CC2)CC1` + CC1OCC2(CCN(c3cnc(Sc4ccnc(N)c4Cl)c(N)n3)CC2)C1N: the IC50 under setting [1] is more than 10000 nM; the half-maximal inhibitory concentration (IC50) under setting [2] was more than 10000 nM; the IC50 under setting [3] is more than 10000 nM; the half-inhibitory concentration (IC50) under setting [4] was more than 10000 nM; the 50% inhibitory concentration (IC50) under setting [5] was more than 10000 nM. The viability, T/C runs as follows: under setting [6], 104%; under setting [7], 107%; under setting [8], 93.8%; under setting [9], 88%; under setting [10], 102%; under setting [11], 91.3%. In addition, the viability, T/C is, setting by setting: under setting [12], 92.8%; under setting [13], 95%; under setting [14], 90.6%; under setting [15], 93.7%; under setting [16], 94.7%; under setting [17], 92.4%. Moreover, the viability, T/C is 93.6% under setting [18]; 87.1% under setting [19]; 80.6% under setting [20]; 83.7% under setting [21]; 87.6% under setting [22]; 84% under setting [23]. Further, the viability, T/C under setting [24] is 79.4%; the viability, T/C under setting [25] was 73.1%; the viability, T/C under setting [26] is 73.2%; the viability, T/C under setting [27] is 71.2%; the viability, T/C under setting [28] was 79.3%; the viability, T/C under setting [29] is 65.5%. For the same molecule, the viability, T/C under setting [30] was 68.9%; the viability, T/C under setting [31] is 75.4%; the viability, T/C under setting [32] is 66.1%; the viability, T/C under setting [33] was 59.9%; the viability, T/C under setting [34] is 58.1%; the viability, T/C under setting [35] was 60.7%.
